From patent publication US20240335447A1, “WEE1 INHIBITOR FOR CANCER” (Recurium IP Holdings, LLC, priority 2021, published 2024)

Key:
H23 cells = assay: CellTiter-Glo (CTG) cell viability assay, H23 cells; type: cell-based; settings: Homo sapiens, NCI-H23, 72 h, sotorasib 40 nM, Compound (A) 120 nM, single agent or combination of both
Procedure: (§1) 20,000 H23 cells were incubated in a 96 well plate as a triplicate with 40 nM of sotorasib or 120 nM of Compound (A) as a single agent or the combination of both for 72 h (FIG. 2). 20,000 MiaPaca-2 cells were incubated in a 96 well plate as a triplicate with 350 nM of sotorasib or 1000 nM of Compound (A) as a single agent or the combination of both for 72 h (FIG. 3). 20,000 H358 cells were incubated in a 96 well plate as a triplicate with 10 nM of sotorasib or 300 nM of Compound (A) as a single agent or the combination of both for 72 h (FIG. 4). 20,000 SW837 cells were incubated in a 96 well plate as a triplicate with 12 nM of sotorasib or 1000 nM of Compound (A) as a single agent or the combination of both for 72 h (FIG. 5). For each cell line, the cell viability was assessed using a CellTiter-Glo® (CTG) assay.

MiaPaca-2 cells [1] = assay: CellTiter-Glo (CTG) cell viability assay, MiaPaca-2 cells; type: cell-based; settings: Homo sapiens, MIA PaCa-2, 72 h, sotorasib 350 nM, Compound (A) 1000 nM, single agent or combination of both
Procedure: as §1

H358 cells = assay: CellTiter-Glo (CTG) cell viability assay, H358 cells; type: cell-based; settings: Homo sapiens, NCI-H358, 72 h, sotorasib 10 nM, Compound (A) 300 nM, single agent or combination of both
Procedure: as §1

SW837 cells [2] = assay: CellTiter-Glo (CTG) cell viability assay, SW837 cells; type: cell-based; settings: Homo sapiens, 72 h, sotorasib 12 nM, Compound (A) 1000 nM, single agent or combination of both
Procedure: as §1

SW837 cells [3] = assay: SW837 subcutaneous xenograft, tumor growth; type: in vivo, Mice; settings: Compound (A) 60 mg/kg p.o. qd x18, sotorasib 30 mg/kg p.o.
Procedure: Mice were inoculated with SW837 cells subcutaneously on the right flank with the single cell suspension of 95% viable tumor cells (1×10^7) in 100 μL L-15 Matrigel mixture (1:1 ratio) without serum for the tumor development. The treatment was started when the mean tumor size reached approximately 200 mm^3 (with individual tumor range between 180-220 mm^3). Animals were randomly distributed into treatment groups of 8 animals each and dosed with vehicle (top line indicated with circles) and indicated compounds at indicated dosage and frequency shown in FIG. 6 and Table 3. In FIG. 6, single agent activity was shown with Compound (A) and sotorasib at the indicated doses. In addition, the bottom line is Compound (A) 60 mg/kg p.o. qd×18+sotorasib 30 mg/kg p.o. pd×18. […] Tumor volumes were evaluated twice per week to calculate tumor volume over time, and mice were weighed twice per week as a surrogate for signs of toxicity. Tumor growth inhibition (TGI) was calculated using the following equation TGI=(1−(Td−T0)/(Cd−C0))×100%. Td and Cd are the mean tumor volumes of the treated and control animals, and T0 and C0 are the mean tumor volumes of the treated and control animals at the start of the experiment. The tumor regression was defined as (1−(Td/T0))×100% tumor volume (TV) decrease (Td terminal TV divided by T0 initial TV). […]

LoVo tumor cells = assay: colorectal cancer LoVo xenograft model (KRAS mutant); type: in vivo, BALB/c nude mice
Procedure: (§2) The antitumor activity of Compound (A) was assessed using the colorectal cancer LoVo xenograft model (KRAS mutant) with BALB/c nude mice. Each mouse was inoculated on the right flank subcutaneously with 5×10^6/100 μL LoVo tumor cells for the tumor development. When the mean tumor size reached 207 mm^3, animals were randomized into 4 groups (10 animals/group), and the treatments were initiated according to Table 4.
(§3) Study endpoints included daily body weight, clinical observations and tumor volume.

SW1116 tumor cells = assay: colorectal cancer SW1116 xenograft model (TP53 mutant; KRAS mutant); type: in vivo
Procedure: as §2, with “SW1116” for “LoVo”, “(TP53 mutant; KRAS” for “(KRAS”, “NOD/SCID” for “BALB/c”, “1×10^7 (+High Concentration Matrigel)/200” for “5×10^6/100”, “229” for “207”, “6.” for “4.”
as §3

MiaPaca-2 cells [4] = assay: MiaPaca-2 subcutaneous xenograft, tumor growth; type: in vivo, Mice; settings: MiaPaca-2 xenograft, Compound (A) 80 mg/kg p.o. qd x21, sotorasib 10 mg/kg or MRTX849 10 mg/kg p.o.
Procedure: (§4) Tumor volumes were evaluated twice per week to calculate tumor volume over time, and mice were weighed twice per week as a surrogate for signs of toxicity. Tumor growth inhibition (TGI) was calculated using the following equation TGI=(1−(Td−T0)/(Cd−C0))×100%. Td and Cd are the mean tumor volumes of the treated and control animals, and T0 and C0 are the mean tumor volumes of the treated and control animals at the start of the experiment.

SW1463 cells = assay: SW1463 subcutaneous xenograft, tumor growth; type: in vivo, Mice; settings: Compound (A) 80 mg/kg p.o. qd x21, sotorasib 30 mg/kg p.o.
Procedure: Mice were inoculated with SW1463 cells subcutaneously on the right flank with the single cell suspension of 95% viable tumor cells (1×10^7) in 100 μL L-15 Matrigel mixture (1:1 ratio) without serum for the tumor development. The treatment was started when the mean tumor size reached approximately 200 mm^3 (with individual tumor range between 180-220 mm^3). Animals were randomly distributed into treatment groups of 8 animals each and dosed with vehicle (top line indicated with circles) and indicated compounds at indicated dosage and frequency shown in FIG. 11 and Table 10. In FIG. 11, single agent activity was shown with Compound (A) and sotorasib at the indicated doses, and the bottom line is Compound (A) 80 mg/kg p.o. qd×21+sotorasib 30 mg/kg p.o. pd×21.
as §4, with “experiment. The tumor regression was defined as (1−(Td/T0))×100% tumor volume (TV) decrease (Td terminal TV divided by T0 initial TV). […]” for “experiment.”

Compound: C=CCn1c(=O)c2cnc(Nc3ccc(N4CCN(C)CC4)cc3)nc2n1-c1ccc2c(n1)[C@@](O)(CC)CC2 [Compound (A)]
- inhibition at 0.12 µM (H23 cells): 16.5%
- inhibition at 1 µM (MiaPaca-2 cells [1]): 47%
- inhibition at 0.3 µM (H358 cells): 31.5%
- inhibition at 1 µM (SW837 cells [2]): 28.8%
- TGI % (DAY 18) (SW837 cells [3]): 72%
- TGI (%) (LoVo tumor cells; 40 mg/kg/day p.o. qd x 28): 21.4%
- TGI (%) (LoVo tumor cells; 60 mg/kg/day p.o. qd x 28): 32.1%
- TGI (%) (LoVo tumor cells; 80 mg/kg/day p.o. qd x 28): 70.3%
- mean body weights (LoVo tumor cells; 40, 60, 80 mg/kg/day): no significant impact of treatments on mean body weights
- clinical observations (LoVo tumor cells; any dose group (40, 60, 80 mg/kg/day)): no adverse clinical observations
- TGI (%) (SW1116 tumor cells; 40 mg/kg/day p.o. qd x 28): 49.0%
- TGI (%) (SW1116 tumor cells; 60 mg/kg/day p.o. qd x 28): 75.1%
- TGI (%) (SW1116 tumor cells; 80 mg/kg/day p.o. qd x 28): 98.5%
- tolerability (SW1116 tumor cells; 40, 60, 80 mg/kg/day): generally well tolerated for the majority of study animals
- TGI % (DAY 21) (MiaPaca-2 cells [4]): 50%
- TGI % (DAY 21) (SW1463 cells): 57%

Compound: C=CC(=O)N1CCN(c2nc(=O)n(-c3c(C)ccnc3C(C)C)c3nc(-c4c(O)cccc4F)c(F)cc23)[C@@H](C)C1 [sotorasib, reference compound]
- inhibition at 0.04 µM (H23 cells): 27.8%
- inhibition at 0.35 µM (MiaPaca-2 cells [1]): 39%
- inhibition at 0.01 µM (H358 cells): 24%
- inhibition at 0.012 µM (SW837 cells [2]): 20.7%
- TGI % (DAY 18) (SW837 cells [3]): 80%
- TGI % (DAY 21) (MiaPaca-2 cells [4]): 81%
- TGI % (DAY 21) (SW1463 cells): 73%
